What was measured:
[1] = test system: ApoE−/− mice; assay: Histopathology of carotid atherosclerotic plaque: H&E, MAC3 and CD 206 staining; format: in vivo; conditions: after four weeks (FIG. 9)
Description: Further, the effect of treating atherosclerosis of the drug carrier encapsulated with the lobeglitazone was evaluated by histopathologically analyzing the size of the atherosclerotic plaque reflecting the inflammation degree of the atherosclerotic plaque, distribution of the macrophages, and expression of mannose receptors in the macrophage. The atherosclerotic plaque of the carotid extracted from the arteriosclerosis model mouse was stained by H&E staining, MAC3 staining (macrophage staining), and CD 206 staining (macrophage mannose receptor staining).
FIG. 9 is a photograph illustrating sizes of atherosclerotic plaques by using H&E staining, MAC3 staining, and CD 206 staining in the group administered with the drug carrier according to an example embodiment, the group administered orally with lobeglitazone, and the group administered with no drug. FIG. 9 is a photograph illustrating an atherosclerotic plaque in the carotid extracted from the mouse by CD 206 staining (macrophage mannose receptor staining), MAC3 staining (macrophage staining), and H&E staining, before administrating the drug and after administrating the drug for four weeks, respectively, in a group (MMR-lobe) administrated with a glycol chitosan drug carrier encapsulated with lobeglitazone, a group (PO-Lobe) orally administrated with lobeglitazone, and a group (Control) administered with no drug, respectively.

[2] = test system: ApoE−/− mice; assay: In vivo imaging of carotid atherosclerotic plaque, general and in-vivo fluorescence microscope; conditions: 14 mg/kg/week for four weeks, before vs after
From the text: In order to evaluate a possibility of reducing inflammation and a size of the atherosclerotic plaque in vivo of the drug carrier encapsulated with the lobeglitazone, the drug carrier encapsulated with the lobeglitazone was administrated in mice (ApoE−/− mice) causing the atherosclerosis at a carotid branch.
More particularly, the ApoE −/− mice with the atherosclerosis are divided into three groups, and then in the first group, a drug carrier encapsulated with a mannose receptor-specific lobeglitazone was administrated (14 mg/kg/week), in the second group, the same quantity of lobeglitazone was orally administrated (14 mg/kg/week), and in the third group, a treating drug was not administrated. After the drug was administrated for four weeks, the same carotid branch portion was peeled and the size and the inflammation degree of the atherosclerotic plaque before and after treatment were observed and compared by a general microscope and an in-vivo fluorescence microscope.
Particularly, the effect of treating atherosclerosis was evaluated by comparing and analyzing an atherosclerotic size and an inflammation degree before administrating the drug and after administrating the drug for four weeks by administrating a glycol chitosan-based drug carrier (attached with a fluorescent material) capable of imaging an atherosclerotic plaque selectively bound to the mannose receptor over-expressed in the macrophage to an atherosclerotic model mouse and then peeling the carotid branch portion to image the carotid branch portion by an in-vivo fluorescence microscope.
In order to objectively quantify the inflammation degree expressed in the atherosclerotic plaque, a signal of autofluorescence or more of the atherosclerotic plaque measured in the Experimental Example 4 was extracted to quantify the range of signal expression and the degree of signal intensity.

## COc1ccc(Oc2cc(N(C)CCOc3ccc(CC4SC(=O)NC4=O)cc3)ncn2)cc1 (stereo not drawn) [lobeglitazone]
[1]; CD 206 staining
  CD 206 (macrophage mannose receptor staining): decreased
[1]; H&E staining
  size of the atherosclerotic plaque: decreased
[1]; MAC3 staining
  MAC3 (macrophage staining): decreased
[2]; images (FIGS. 5A-5C)
  inflammation degree of the atherosclerosis: not largely changed
  size of the atherosclerosis: not largely changed
[2]; quantified (FIG. 6)
  fluorescence intensity expressed in the atherosclerotic plaque: no difference

From US10086077B2, “Activated macrophage targetable drug carrier for treatment of atherosclerosis and methods of preparing the same” (Korea University Research and Business Foundation, priority 2016, dated 2018)
